Measurements reported in ChEMBL document CHEMBL1150905, “Cytotoxic quassinoids from Simaba cedron” (J Nat Prod, 1998).
≈ marks a conversion by molar mass, not a printed value.

system: P388; assay: Cytotoxicity against mouse P388 cells after 3 days by MTT assay; format: functional, cell-based; settings: P388, 72 h

Structure (SMILES) | IC50 [mg/L]
CC1=CC(=O)O[C@H]1[C@@]1(C)C[C@H]2OC(=O)C[C@H]3[C@@H](C)[C@@H](O)[C@]4(O)OC[C@]23[C@@H]14 [CEDRONOLACTONE B] | 6.5 (≈ 17.8 µM)
CC1=CC(=O)[C@@H](O)[C@]2(C)[C@H]3[C@@]4(O)OC[C@@]35[C@@H](C[C@@H]12)OC(=O)C[C@H]5[C@@H](C)[C@H]4O [CHAPARRINONE] | 0.92 (≈ 2.43 µM)
CC1=CC(=O)O[C@@H]1[C@@]1(C)C[C@H]2OC(=O)C[C@H]3[C@@H](C)[C@@H](O)[C@]4(O)OC[C@]23[C@@H]14 [AILANQUASSIN A] | 39 (≈ 107 µM)
CC(=O)O[C@H]1C[C@@](C)([C@H]2OC(=O)C[C@@H]2CO)C2=CC(=O)O[C@@H]3C[C@@H]4[C@](C)(C(=O)C=C[C@@]4(C)O)[C@@H]1[C@]23C [GUANEPOLIDE] | 70 (≈ 139 µM)
CC[C@@H](C)C(=O)O[C@H]1C(=O)O[C@@H]2C[C@H]3C(C)=CC(=O)[C@@H](O)[C@]3(C)[C@H]3[C@@H](O)[C@H](O)[C@]4(C)OC[C@]32[C@@H]14 [SIMALIKALACTONE D] | 0.0055 (≈ 0.0115 µM)
CC1=C[C@H](O)[C@@H](O)[C@]2(C)[C@H]3[C@@]4(O)OC[C@@]35[C@@H](C[C@@H]12)OC(=O)C[C@H]5[C@@H](C)[C@H]4O [CHAPARRIN] | > 100
CC1=CC(=O)O[C@@H]1[C@@]1(C)C[C@H]2OC(=O)[C@H](O)[C@H]3[C@@H](C)[C@@H](O)[C@]4(O)OC[C@@]32[C@@H]14 [POLYANDROL] | 17 (≈ 44.7 µM)
CC1=CC(=O)O[C@H]1[C@@]1(C)C[C@H]2OC(=O)[C@H](O)[C@H]3[C@@H](C)[C@@H](O)[C@]4(O)OC[C@@]32[C@@H]14 [CEDRONOLACTONE C] | 49 (≈ 129 µM)
CC1=CC(=O)[C@@H](O)[C@]2(C)[C@H]3[C@]4(O)OC[C@]35[C@H]([C@@H](C)[C@H]4O)[C@@H](O)C(=O)O[C@@H]5C[C@@H]12 [GLAUCARUBOLONE] | 1.4 (≈ 3.55 µM)
CC1=CC(=O)[C@@H](O)[C@]2(C)[C@H]3[C@@H](O)[C@H](O)[C@@]4(C)OC[C@@]35[C@@H](C[C@@H]12)OC(=O)[C@H](OC(=O)CC(C)C)[C@@H]45 [CEDRONOLACTONE A] | 0.0074 (≈ 0.0155 µM)
CC1=C[C@H](O)[C@@H](O)[C@]2(C)[C@H]3[C@@]4(O)OC[C@]35[C@H]([C@@H](C)[C@H]4O)[C@@H](O)C(=O)O[C@@H]5C[C@@H]12 [GLAUCARUBOL] | > 100
CC1=CC(=O)[C@@H](O)[C@]2(C)[C@H]3[C@@H](O)[C@H](O)[C@@]4(C)OC[C@@]35[C@@H](C[C@@H]12)OC(=O)[C@H](O)[C@@H]45 [YADANZIOLIDE C] | 2.4 (≈ 6.08 µM)
